{"source": "ChEMBL document CHEMBL5154826", "about": "“Discovery of the Clinical Candidate MAK683: An EED-Directed, Allosteric, and Selective PRC2 Inhibitor for the Treatment of Advanced Malignancies” (J Med Chem, 2022)", "key": {"[1]": {"experiment": "Dissociation constant, pKa of compound", "assay_type": "physicochemical"}, "[2]": {"experiment": "In vivo inhibition of PRC2 in PBMC collected from human Karpas-422 cells xenografted Athymic NTac:NIH-Whn nude rat assessed as reduction in H3K27me3 level at 0.3 mg/kg, po, qd for 52 days measured after 4 hrs of last dose by FACS method", "assay_type": "functional", "set-up": "scale not given: the % may be the effect or the level left", "conditions": "time 52 day"}, "KARPAS-422": {"system": "KARPAS-422", "experiment": "Antiproliferative activity against human KARPAS-422 cells expressing EZH2 mutant assessed as inhibition of cell growth after 14 days by beckman coulter counting method", "assay_type": "functional", "conditions": "time 14 day"}, "[3]": {"experiment": "Plasma clearance in dog assessed as hepatic extraction", "assay_type": "ADME, cell-free, Canis lupus familiaris", "conditions": "read-out: ERH"}, "[4]": {"experiment": "Intrinsic clearance in rat hepatocytes measured per 10^6 cells", "assay_type": "ADME, cell-based, Hepatocyte", "conditions": "read-out: CLH"}, "[5]": {"experiment": "Drug metabolism in bile duct cannulated Wistar Han rat assessed as parent compound recovery in urine at 3 mg/kg, iv after 8 hrs by LC-MS/MS analysis", "assay_type": "ADME, organism-based", "conditions": "read-out: Drug metabolism"}, "[6]": {"target": "3',5'-cyclic-AMP phosphodiesterase 4D (Homo sapiens, UniProt Q08499)", "sequence (Q08499 whole entry)": "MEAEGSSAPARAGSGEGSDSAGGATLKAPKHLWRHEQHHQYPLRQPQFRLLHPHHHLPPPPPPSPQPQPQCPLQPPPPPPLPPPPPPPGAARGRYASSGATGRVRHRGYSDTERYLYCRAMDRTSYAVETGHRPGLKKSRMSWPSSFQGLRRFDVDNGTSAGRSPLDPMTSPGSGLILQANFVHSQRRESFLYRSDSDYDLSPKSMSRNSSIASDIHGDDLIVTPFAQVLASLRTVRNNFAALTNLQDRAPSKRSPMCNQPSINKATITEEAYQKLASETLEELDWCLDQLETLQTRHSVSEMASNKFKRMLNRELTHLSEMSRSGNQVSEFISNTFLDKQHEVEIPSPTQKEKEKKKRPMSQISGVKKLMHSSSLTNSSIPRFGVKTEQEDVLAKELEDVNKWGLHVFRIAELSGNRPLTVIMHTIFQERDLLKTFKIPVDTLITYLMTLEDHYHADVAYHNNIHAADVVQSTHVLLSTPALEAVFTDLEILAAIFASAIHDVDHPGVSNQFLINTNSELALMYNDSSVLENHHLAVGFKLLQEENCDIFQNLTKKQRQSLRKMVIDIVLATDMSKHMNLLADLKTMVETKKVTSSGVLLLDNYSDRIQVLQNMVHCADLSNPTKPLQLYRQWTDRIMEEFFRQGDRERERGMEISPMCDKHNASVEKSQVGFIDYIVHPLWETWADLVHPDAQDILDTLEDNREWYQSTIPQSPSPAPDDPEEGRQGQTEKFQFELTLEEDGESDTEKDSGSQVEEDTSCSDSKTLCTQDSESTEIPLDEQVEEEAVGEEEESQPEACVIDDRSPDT", "experiment": "Inhibition of human Phosphodiesterase 4D"}, "Cytochrome P450 2C9": {"target": "Cytochrome P450 2C9 (Homo sapiens, UniProt P11712)", "sequence (P11712 whole entry)": "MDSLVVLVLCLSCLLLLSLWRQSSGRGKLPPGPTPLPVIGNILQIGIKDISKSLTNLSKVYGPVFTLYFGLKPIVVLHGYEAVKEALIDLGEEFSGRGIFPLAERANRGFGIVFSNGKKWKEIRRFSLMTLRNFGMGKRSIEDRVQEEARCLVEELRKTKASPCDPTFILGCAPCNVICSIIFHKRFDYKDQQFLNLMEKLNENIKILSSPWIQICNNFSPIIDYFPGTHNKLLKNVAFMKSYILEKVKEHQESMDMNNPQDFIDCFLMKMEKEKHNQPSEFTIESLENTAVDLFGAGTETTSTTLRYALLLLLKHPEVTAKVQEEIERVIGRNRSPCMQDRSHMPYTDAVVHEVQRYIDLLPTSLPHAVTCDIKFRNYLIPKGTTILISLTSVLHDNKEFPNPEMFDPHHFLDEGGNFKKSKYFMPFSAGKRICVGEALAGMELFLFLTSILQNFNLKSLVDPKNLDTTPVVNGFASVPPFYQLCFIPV", "experiment": "Inhibition of CYP2C9 in human liver microsomes using diclofenac as substrate incubated for 10 mins in presence of NADPH by LC-MS/MS analysis", "assay_type": "ADME, Microsome"}, "[7]": {"experiment": "High throughput solubility of the compound at pH 7 after 16 to 24 hrs by MS/MS analysis", "assay_type": "physicochemical", "conditions": "buffer, time 16-24 hrs, read-out: solubility"}, "[8]": {"experiment": "Plasma protein binding in human at 1 uM measured after 6 hrs LC-MS/MS analysis", "assay_type": "ADME, cell-free", "conditions": "read-out: PPB (converted)"}, "[9]": {"experiment": "In vivo inhibition of PRC2 in PBMC collected from human Karpas-422 cells xenografted Athymic NTac:NIH-Whn nude rat assessed as reduction in H3K27me3 level at 3 mg/kg, po, qd for 57 days measured after 4 hrs of last dose by FACS method", "assay_type": "functional", "set-up": "scale not given: the % may be the effect or the level left", "conditions": "time 57 day"}, "[10]": {"experiment": "Intrinsic clearance in dog hepatocytes measured per 10^6 cells", "assay_type": "ADME, cell-based, Canis lupus familiaris, Hepatocyte", "conditions": "read-out: CLH"}, "[11]": {"experiment": "Plasma protein binding in rat at 1 uM measured after 6 hrs LC-MS/MS analysis", "assay_type": "ADME, cell-free", "conditions": "read-out: PPB (converted)"}, "[12]": {"experiment": "Intrinsic clearance in mouse hepatocytes measured per 10^6 cells", "assay_type": "ADME, cell-based, Hepatocyte", "conditions": "read-out: CLH"}, "Cytochrome P450 2D6": {"target": "Cytochrome P450 2D6 (Homo sapiens, UniProt P10635)", "sequence (P10635 whole entry)": "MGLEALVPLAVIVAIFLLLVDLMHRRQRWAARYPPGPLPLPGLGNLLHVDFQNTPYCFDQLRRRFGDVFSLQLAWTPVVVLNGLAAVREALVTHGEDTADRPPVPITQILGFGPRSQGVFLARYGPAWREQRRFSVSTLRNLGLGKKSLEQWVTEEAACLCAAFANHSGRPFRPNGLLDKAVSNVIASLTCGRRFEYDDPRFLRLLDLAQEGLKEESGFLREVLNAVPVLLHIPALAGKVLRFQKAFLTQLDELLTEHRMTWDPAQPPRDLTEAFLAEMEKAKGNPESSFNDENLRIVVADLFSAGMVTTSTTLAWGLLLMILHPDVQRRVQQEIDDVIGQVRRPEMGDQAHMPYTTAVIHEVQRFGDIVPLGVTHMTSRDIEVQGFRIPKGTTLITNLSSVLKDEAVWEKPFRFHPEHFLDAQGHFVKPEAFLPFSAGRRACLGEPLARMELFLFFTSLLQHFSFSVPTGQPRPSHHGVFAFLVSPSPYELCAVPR", "experiment": "Inhibition of CYP2D6 in human liver microsomes using bufuralol as substrate incubated for 10 mins in presence of NADPH by LC-MS/MS analysis", "assay_type": "ADME, Microsome"}, "[13]": {"experiment": "Plasma clearance in dog", "assay_type": "ADME, cell-free, Canis lupus familiaris"}, "Cytochrome P450 3A5": {"target": "Cytochrome P450 3A5 (Homo sapiens, UniProt P20815)", "sequence (P20815 whole entry)": "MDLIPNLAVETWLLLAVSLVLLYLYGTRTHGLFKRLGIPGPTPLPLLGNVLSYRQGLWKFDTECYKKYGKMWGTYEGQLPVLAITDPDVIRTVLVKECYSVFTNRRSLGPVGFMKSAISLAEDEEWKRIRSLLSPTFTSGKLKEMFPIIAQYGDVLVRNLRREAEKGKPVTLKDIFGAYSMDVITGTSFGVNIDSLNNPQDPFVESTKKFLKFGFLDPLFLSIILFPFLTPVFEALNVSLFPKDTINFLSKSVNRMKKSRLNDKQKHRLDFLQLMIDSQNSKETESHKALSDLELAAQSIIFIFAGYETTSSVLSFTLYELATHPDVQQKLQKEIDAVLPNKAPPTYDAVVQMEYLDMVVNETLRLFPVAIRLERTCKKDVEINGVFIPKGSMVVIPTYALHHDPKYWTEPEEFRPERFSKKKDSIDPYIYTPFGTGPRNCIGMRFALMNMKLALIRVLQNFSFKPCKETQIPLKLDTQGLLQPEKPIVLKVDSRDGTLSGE", "experiment": "Inhibition of CYP3A5 in human liver microsomes by LC-MS/MS analysis", "assay_type": "ADME, Microsome"}, "[14]": {"experiment": "Permeability across apical to basolateral side in human Caco-2 cells at 10 uM incubated for 2 hrs by LC/MS/MS analysis", "assay_type": "ADME, cell-based", "conditions": "caco-2, 2 h, 10 µM"}, "[15]": {"experiment": "Mutagenecity in Salmonella typhimurium TA98 by Ames test", "assay_type": "toxicity", "conditions": "salmonella enterica subsp. enterica serovar typhimurium"}, "[16]": {"experiment": "High throughput solubility of the compound in FeSSIF after 16 to 24 hrs by MS/MS analysis", "assay_type": "physicochemical", "conditions": "time 16-24 hrs"}, "[17]": {"experiment": "Toxicity in rat assessed as effect on adrenal gland", "conditions": "in vivo"}, "[18]": {"experiment": "Reduction of H3K27me3 level in human Karpas-422 cells xenografted Athymic BALB/c nude mouse tumor assessed at 10 mg/kg, po twice a day for 21 days", "assay_type": "functional", "set-up": "scale not given: the % may be the effect or the level left", "conditions": "time 21 day"}, "[19]": {"experiment": "Metabolic stability in rat microsomes assessed as intrinsic clearance", "assay_type": "ADME, Microsome", "conditions": "read-out: CLH"}, "[20]": {"experiment": "Dose normalized Cmax in wild type Beagle dog at 2 mg/kg, po or 1 mg/kg, iv after 1 week by LC-MS/MS analysis", "assay_type": "ADME, organism-based, Canis lupus familiaris", "conditions": "in vivo, 168 h, time 1 weeks"}, "[21]": {"experiment": "Dose normalized AUC in wild type Beagle dog at 2 mg/kg, po or 1 mg/kg, iv after 1 week by LC-MS/MS analysis", "assay_type": "ADME, organism-based, Canis lupus familiaris", "conditions": "in vivo, 168 h, time 1 weeks"}, "[22]": {"experiment": "In vivo inhibition of PRC2 in PBMC collected from human Karpas-422 cells xenografted Athymic NTac:NIH-Whn nude rat assessed as reduction in H3K27me3 level at 30 mg/kg, po, qd for 42 days measured after 4 hrs of last dose by FACS method", "assay_type": "functional", "set-up": "scale not given: the % may be the effect or the level left", "conditions": "time 42 day"}, "[23]": {"experiment": "Volume of distribution at steady state ICR (CD-1) mouse at 2 mg/kg, po or 1 mg/kg, iv after 1 week by LC-MS/MS analysis", "assay_type": "ADME, organism-based", "conditions": "in vivo, 168 h, time 1 weeks"}, "[24]": {"experiment": "Terminal half life in ICR (CD-1) mouse at 2 mg/kg, po or 1 mg/kg, iv after 1 week by LC-MS/MS analysis", "assay_type": "ADME, organism-based", "conditions": "in vivo, time 1 weeks, read-out: beta t1/2 (converted)"}, "cells": {"experiment": "cells", "conditions": "Homo sapiens, G-401, 48 h", "description": "Inhibition of PRC2 in human G-401 cells assessed as H3K27 methylation status incubated for 48 hrs by ELISA method"}, "[25]": {"experiment": "Antitumor activity against human Karpas-422 cells xenografted Athymic BALB/c nude mouse assessed as inhibition of tumor growth at 30 mg/kg, po bid, for 33 days", "assay_type": "functional", "set-up": "scale not given: the % may be the effect or the level left", "conditions": "time 33 day"}, "[26]": {"experiment": "Dose normalized Cmax in ICR (CD-1) mouse at 2 mg/kg, po or 1 mg/kg, iv after 1 week by LC-MS/MS analysis", "assay_type": "ADME, organism-based", "conditions": "in vivo, 168 h, time 1 weeks"}, "[27]": {"experiment": "Permeability across basolateral to apical side in human Caco-2 cells incubated for 2 hrs by LC/MS/MS analysis", "assay_type": "ADME, cell-based", "conditions": "read-out: permeability"}, "[28]": {"experiment": "Inhibition of PRC2 (unknown origin) assessed as reduction in H3K27 trimethylation using H3K27Me0 peptide (21 to 44 residues) as substrate by measuring SAH formation by LC-MS analysis", "set-up": "species or system Homo sapiens"}, "[29]": {"target": "Synaptic vesicular amine transporter (Homo sapiens, UniProt Q05940)", "sequence (Q05940 whole entry)": "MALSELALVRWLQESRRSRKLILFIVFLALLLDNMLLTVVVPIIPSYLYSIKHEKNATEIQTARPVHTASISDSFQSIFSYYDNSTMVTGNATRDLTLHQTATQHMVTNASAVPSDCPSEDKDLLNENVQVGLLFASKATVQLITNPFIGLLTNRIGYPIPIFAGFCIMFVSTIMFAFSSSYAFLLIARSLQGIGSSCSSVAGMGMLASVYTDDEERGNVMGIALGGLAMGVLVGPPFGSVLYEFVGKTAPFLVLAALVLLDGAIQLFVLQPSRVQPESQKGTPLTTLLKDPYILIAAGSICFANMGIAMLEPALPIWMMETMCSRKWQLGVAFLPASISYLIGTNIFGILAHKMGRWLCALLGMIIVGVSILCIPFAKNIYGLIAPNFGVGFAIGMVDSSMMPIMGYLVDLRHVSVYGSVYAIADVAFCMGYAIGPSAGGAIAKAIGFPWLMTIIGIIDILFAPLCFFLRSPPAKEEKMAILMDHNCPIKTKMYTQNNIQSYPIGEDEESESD", "experiment": "Inhibition of vesicular monoamine transporter 2 (unknown origin)"}, "[30]": {"experiment": "Ratio of drug level in dog blood to plasma", "assay_type": "ADME, cell-free, Canis lupus familiaris", "conditions": "whole blood"}, "[31]": {"experiment": "Unbound plasma concentration in Athymic BALB/c nude mouse xenografted with human Karpas-422 cells at 10 to 300 mg/kg, po after 12 hrs by HPLC-MS/MS analysis", "assay_type": "ADME, organism-based", "conditions": "in vivo, dose 10-300 mg/kg"}, "[32]": {"experiment": "Plasma clearance in rat assessed as hepatic extraction", "assay_type": "ADME, cell-free", "conditions": "read-out: ERH"}, "[33]": {"experiment": "Drug metabolism in bile duct cannulated Wistar Han rat assessed as parent compound recovery in bile at 3 mg/kg, iv after 8 hrs by LC-MS/MS analysis", "assay_type": "ADME, organism-based", "conditions": "read-out: Drug metabolism"}, "[34]": {"experiment": "Drugmetabolism in rat hepatocytes assessed as CYP3A4 mediated metabolite formation", "assay_type": "ADME, cell-based, Hepatocyte"}, "[35]": {"experiment": "Toxicity in Athymic NTac:NIH-Whn nude rat xenografted with human Karpas-422 cells assessed as reduction in body weight at 0.3 to 30 mg/kg, po, qd measured upto 140 days", "assay_type": "organism-based", "conditions": "in vivo, 3360 h, dose 0.3-30 mg/kg, time < 140 day"}, "[36]": {"experiment": "Drugmetabolism in dog hepatocytes assessed as CYP3A4 mediated metabolite formation", "assay_type": "ADME, cell-based, Canis lupus familiaris, Hepatocyte"}, "[37]": {"experiment": "High throughput solubility of the compound in SGF after 16 to 24 hrs by MS/MS analysis", "assay_type": "physicochemical", "conditions": "time 16-24 hrs"}}, "data": [{"smiles": "Cc1ncccc1-c1cnc(NCc2c(F)ccc3c2CCO3)n2cnnc12", "values": [{"measurement": "pKa", "setting": "[1]", "result": 5.2}, {"measurement": "Activity", "setting": "[2]", "result": 20, "unit": "%"}, {"measurement": "GI50", "setting": "KARPAS-422; Homo sapiens, KARPAS-422, 336 h", "result": 4, "unit": "µM"}, {"measurement": "GI90", "setting": "KARPAS-422", "result": 8, "unit": "µM"}, {"measurement": "hepatic extraction ratio", "setting": "[3]", "result": 0.35}, {"measurement": "hepatocyte CLint", "setting": "[4]", "result": 12, "unit": "µL/min/1e6 cells"}, {"measurement": "dose excreted at 8 h", "setting": "[5]", "result": 0.5, "unit": "%"}, {"measurement": "IC50", "setting": "[6]", "result": 6.4, "unit": "µM"}, {"measurement": "IC50", "setting": "Cytochrome P450 2C9", "result": "> 20", "unit": "µM"}, {"measurement": "solubility", "setting": "[7]", "result": 19, "unit": "µM"}, {"measurement": "fraction unbound at 6 h, 1 µM", "setting": "[8]", "result": 0.08}, {"measurement": "Activity", "setting": "[9]", "result": 80, "unit": "%"}, {"measurement": "hepatocyte CLint", "setting": "[10]", "result": 4.8, "unit": "µL/min/1e6 cells"}, {"measurement": "fraction unbound at 6 h, 1 µM", "setting": "[11]", "result": 0.13}, {"measurement": "hepatocyte CLint", "setting": "[12]", "result": 3.9, "unit": "µL/min/1e6 cells"}, {"measurement": "IC50", "setting": "Cytochrome P450 2D6", "result": "> 20", "unit": "µM"}, {"measurement": "clearance", "setting": "[13]", "result": 13, "unit": "mL/min/kg"}, {"measurement": "IC50", "setting": "Cytochrome P450 3A5", "result": "> 18", "unit": "µM"}, {"measurement": "permeability", "setting": "[14]", "result": "2.8 10^-6 cm/s"}, {"measurement": "Activity", "setting": "[15]", "result": "Non-Toxic"}, {"measurement": "solubility", "setting": "[16]", "result": 57, "unit": "µM"}, {"measurement": "Activity", "setting": "[17]", "result": "Non-Toxic"}, {"measurement": "Activity", "setting": "[18]", "result": ">50", "unit": "%"}, {"measurement": "microsomal CLint", "setting": "[19]", "result": 22, "unit": "µL/min/mg"}, {"measurement": "Cmax/dose", "setting": "[20]", "result": 400, "unit": "nM"}, {"measurement": "AUC/dose", "setting": "[21]", "result": 2093, "unit": "nM·h"}, {"measurement": "Activity", "setting": "[22]", "result": 93, "unit": "%"}, {"measurement": "Vdss", "setting": "[23]", "result": 3.5, "unit": "L/kg"}, {"measurement": "half-life", "setting": "[24]", "result": 1.5, "unit": "h"}, {"measurement": "IC50", "setting": "cells", "result": 3, "unit": "µM"}, {"measurement": "Activity", "setting": "[25]", "result": 100, "unit": "%"}, {"measurement": "Cmax/dose", "setting": "[26]", "result": 356, "unit": "nM"}, {"measurement": "Papp B→A at 2 h", "setting": "[27]", "result": 37, "unit": "×10⁻⁶ cm/s"}, {"measurement": "IC50", "setting": "[28]", "result": 9, "unit": "µM"}, {"measurement": "IC50", "setting": "[29]", "result": 1.8, "unit": "µM"}, {"measurement": "blood plasma ratio", "setting": "[30]", "result": 0.72}, {"measurement": "Cp(f)", "setting": "[31]", "result": 8, "unit": "nM"}, {"measurement": "hepatic extraction ratio", "setting": "[32]", "result": 0.18}, {"measurement": "dose excreted at 8 h", "setting": "[33]", "result": 0.3, "unit": "%"}, {"measurement": "Drug metabolism", "setting": "[34]", "result": "Metabolite_Detected"}, {"measurement": "Activity", "setting": "[35]", "result": "Non-Toxic"}, {"measurement": "Drug metabolism", "setting": "[36]", "result": "Metabolite_Detected"}, {"measurement": "solubility", "setting": "[37]", "result": 8740, "unit": "µM"}]}]}
